Legend:
293T cells = assay: Cellular cytotoxicity by counting cells after 48 hrs with compound vs DMSO; format: cell-based
Procedure: To screen compounds that can boost A3G levels, 293T cells (25,000 cells per well in 96-well plate) stably expressing A3G-Luc protein or A3G-Luc/Vif proteins were plated. After 24 hrs post plating culture medium was replaced with 100 μl of new medium containing either DMSO as a control or various compounds (10 μM concentration). After 48 hrs of incubation with compounds culture medium was removed from each well and replaced with 100 μl of Britelite Plus luciferase assay substrate (PerkinElmer). Following 5 min. of incubation at room temperature, 75 μl of each cell lysate was transferred to a 96-well OptiPlate 96 (PerkinElmer) and luminescence was measured in a VICTOR X2 Multilabel Reader (PerkinElmer). Relative activity of compounds for their boosting capability A3G-Luc activity was calculated by plotting DMSO-treated A3G-Luc or A3G-Luc/Vif cells as 100%. Cellular cytotoxicity was measured by counting number of cells after 48 hrs of incubation with compounds compared to DMSO treated cells.

A3G = A3G (Homo sapiens, UniProt Q9HC16); conditions: described by others (ref. 39); cited from earlier work
Chain of A3G (Q9HC16 whole entry): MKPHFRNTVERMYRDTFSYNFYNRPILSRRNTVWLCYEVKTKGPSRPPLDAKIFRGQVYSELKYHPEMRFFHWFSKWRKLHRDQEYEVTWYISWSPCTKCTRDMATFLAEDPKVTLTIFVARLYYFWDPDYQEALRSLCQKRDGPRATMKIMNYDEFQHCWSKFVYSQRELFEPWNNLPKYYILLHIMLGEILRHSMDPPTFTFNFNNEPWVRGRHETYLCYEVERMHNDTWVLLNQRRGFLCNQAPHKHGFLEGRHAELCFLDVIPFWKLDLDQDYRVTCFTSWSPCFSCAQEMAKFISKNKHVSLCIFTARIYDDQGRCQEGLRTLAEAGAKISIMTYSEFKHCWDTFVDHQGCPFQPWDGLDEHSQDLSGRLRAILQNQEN

Q: Which “toxicity to 293T cells” value (293T cells) does the source give for `COc1ccc(C(=O)Nc2cc(OC)c(OC)c(OC)c2)cc1NC(=O)C(C)Br` (centres unmarked) [IMB-26, reference compound] here?
A: toxic

Q: What about the “binding to A3G and degradation of A3G by Vif” value (A3G) of the same compound?
A: directly bind to A3G and prevent its degradation by Vif

From US9688637B2, “3-amidobenzamides and uses thereof for increasing cellular levels of A3G and other A3 family members” (Northwestern University, priority 2014, dated 2017)
